This is an account of results in ChEMBL document CHEMBL5120961, “N-Arylimidazoliums as Highly Selective Biomimetic Antimicrobial Agents” (J Med Chem, 2022).

SMILES strings stand for the structures. ≈ marks a conversion by molar mass, not a printed value. Calls of active or inactive are those of the source. The rule behind the calls is not given here. Bridge positions count the residues as written; N and C are the ends. Square brackets hold non-standard residues; d marks the D form. Peptide text beside a SMILES is read from it. * marks the point of attachment. X1 = CC[C@H](C)CCCCC(=O)*; Dab = NCC[C@H](N)C(=O)O

Data set [1] has as its system Staphylococcus aureus. The data set is described as follows: Antibacterial activity against Staphylococcus aureus ATCC 25923 assessed as inhibition of bacterial growth incubated for 16 to 18 hrs by broth microdilution method. It counts as functional. The conditions noted are these: time 16-18 hrs. Background: In broth dilution the organism is exposed to a series of concentrations in liquid medium.

Data set [2] concerns Staphylococcus aureus. The data set is described as follows: Antibacterial activity against methicillin-resistant Staphylococcus aureus ATCC 43300 assessed as inhibition of bacterial growth incubated for 16 to 18 hrs by broth microdilution method. It counts as functional. The conditions noted are these: time 16-18 hrs.
A short description of data set [3]: Selectivity ratio of HC5 for hemolytic activity in rabbit erythrocytes to MIC for antibacterial activity against methicillin-resistant Staphylococcus aureus ATCC 43300. It counts as toxicity, cell-based.
The next data set has as its system Erythrocyte. Kind of data set: Hemolytic activity in rabbit erythrocytes incubated for 1 hr. In kind it is toxicity, cell-based, Oryctolagus cuniculus.
The test system of a further data set is Escherichia coli. Kind of data set: Antibacterial activity against Escherichia coli ATCC 25922 assessed as inhibition of bacterial growth incubated for 16 to 18 hrs by broth microdilution method. In kind it is functional. The conditions noted are these: time 16-18 hrs.
Another data set deals with Klebsiella pneumoniae. Kind of data set: Antibacterial activity against Klebsiella pneumoniae CMCC(B) 46117 assessed as inhibition of bacterial growth incubated for 16 to 18 hrs by broth microdilution method. In kind it is functional. The conditions noted are these: time 16-18 hrs.
The next data set deals with Pseudomonas aeruginosa. The data set is described as follows: Antibacterial activity against Pseudomonas aeruginosa ATCC 27853 assessed as inhibition of bacterial growth incubated for 16 to 18 hrs by broth microdilution method. In kind it is functional. The note with it: time 16-18 hrs.
For the next data set, the system named is Acinetobacter baumannii. The data set is described as follows: Antibacterial activity against Acinetobacter baumannii ATCC 19606 assessed as inhibition of bacterial growth incubated for 16 to 18 hrs by broth microdilution method. In kind it is functional. The note with it: time 16-18 hrs.
The subject of data set [4] is Staphylococcus aureus. The data set is described as follows: Inhibition of biofilm formation in methicillin-resistant Staphylococcus aureus ATCC 43300 incubated for 24 hrs under stationary conditions by crystal violet staining based analysis. In kind it is functional, organism-based.
In the next data set the test system is Enterococcus faecalis. Kind of data set: Antibacterial activity against Enterococcus faecalis ATCC 29212 assessed as inhibition of bacterial growth incubated for 16 to 18 hrs by broth microdilution method. It counts as functional. The conditions noted are these: time 16-18 hrs.
Data set [5] deals with Staphylococcus aureus. The data set is described as follows: Disruption of established biofilm in methicillin-resistant Staphylococcus aureus ATCC 43300 assessed as reduction of relative biofilm mass at 128XMIC incubated for 24 hrs by crystal violet staining based analysis. It counts as functional.
The subject of data set [6] is Staphylococcus aureus. The data set is described as follows: Antibacterial activity against methicillin-resistant Staphylococcus aureus ATCC 43300 infected in BALB/c mouse assessed as reduction of histopathological changes of pulmonary tissue at 4 mg/kg, iv administered at 1, 6, 25 and 30 hrs post-infection and measured on day 7 post-infection by hematoxylin-eosin staining based analysis. The conditions noted are these: time 7.0 day. In kind it is functional, organism-based.

`CCn1cc(C(=O)O)c(=O)c2cc(F)c(N3CCNCC3)cc21` [NORFLOXACIN]: the MIC in the data set on Staphylococcus aureus [1] and in the data set with Staphylococcus aureus [2] was 1 µg/mL (≈ 3.13 µM) throughout.
Consider `CCCCCC[n+]1ccn(CCCCn2cc[n+](CCCCCC)c2)c1.[Br-].[Br-]`, for which the selectivity ratio in [3] was 16. The MIC with Staphylococcus aureus [1] was found to be 125 µg/mL; in the data set on Staphylococcus aureus [2], 500 µg/mL; in the data set with Escherichia coli, 125 µg/mL. Besides, the HC5 in the data set on Erythrocyte amounted to 8000 µg/mL.
Regarding `CCCCCCCC[n+]1ccn(-c2ccc(C#Cc3ccc(-n4cc[n+](CCCCCCCC)c4)cc3)cc2)c1.[Br-].[Br-]`, in data set [3], the selectivity ratio was determined as 200. The minimum inhibitory concentration (MIC) in the data set with Staphylococcus aureus [1], with Staphylococcus aureus [2] and in the data set on Escherichia coli was 1 µg/mL in each case. In the data set with Erythrocyte, this compound registered an HC5 of 200 µg/mL.
For the compound `C(#Cc1ccc(-n2cc[n+](Cc3ccccc3)c2)cc1)c1ccc(-n2cc[n+](Cc3ccccc3)c2)cc1.[Br-].[Br-]`, in data set [3], the selectivity ratio turned out to be 200. Besides, the MIC in the data set on Staphylococcus aureus [1] amounted to 0.5 µg/mL; in the data set with Staphylococcus aureus [2], 1 µg/mL; in the data set on Escherichia coli it was 2 µg/mL. This compound showed an HC5 in the data set on Erythrocyte of 200 µg/mL.
`CCCCCC[n+]1ccn(-c2ccc(CCc3ccc(-n4cc[n+](CCCCCC)c4)cc3)cc2)c1.[Br-].[Br-]`: in data set [3], the selectivity ratio worked out at 1000. Moreover, the MIC came out at 0.5 µg/mL with Staphylococcus aureus [1], 1 µg/mL with Staphylococcus aureus [2] and 4 µg/mL in the data set on Escherichia coli. This compound also displayed an HC5 in the data set on Erythrocyte of 1000 µg/mL.
Consider `CC[C@H](C)CCCCC(=O)N[C@@H](CCN)C(=O)N[C@H](C(=O)N[C@@H](CCN)C(=O)N[C@H]1CCNC(=O)[C@H]([C@@H](C)O)NC(=O)[C@H](CCN)NC(=O)[C@H](CCN)NC(=O)[C@H](CC(C)C)NC(=O)[C@@H](Cc2ccccc2)NC(=O)[C@H](CCN)NC1=O)[C@@H](C)O` (X1-[Dab]T[Dab][Dab][Dab][dF]L[Dab][Dab]T; lactam 4-C), for which the MIC with Klebsiella pneumoniae, in the data set with Pseudomonas aeruginosa, in the data set with Escherichia coli and in the data set with Acinetobacter baumannii was 1 µg/mL (≈ 0.831 µM) throughout.
Consider `CCCC[n+]1ccn(-c2ccc(C#Cc3ccc(-n4cc[n+](CCCC)c4)cc3)cc2)c1.[Br-].[Br-]`, for which the selectivity ratio in [3] amounted to 500. Also, the figures for the MIC in the data set with Staphylococcus aureus [1], in the data set on Staphylococcus aureus [2] and in the data set on Escherichia coli were 2 µg/mL, 4 µg/mL and 8 µg/mL, respectively. In the data set with Erythrocyte, this compound registered an HC5 of 2000 µg/mL.
For the compound `CC[n+]1ccn(-c2ccc(C#Cc3ccc(-n4cc[n+](CC)c4)cc3)cc2)c1.[Br-].[Br-]`, the selectivity ratio in data set [3] amounted to 125. Moreover, the MIC in the data set with Staphylococcus aureus [1] was 64 µg/mL; in the data set with Staphylococcus aureus [2] it was 64 µg/mL; with Escherichia coli it was 8 µg/mL. This compound came in with an HC5 with Erythrocyte of 8000 µg/mL.
For `CCCCCCCC[n+]1ccn(CCCCn2cc[n+](CCCCCCCC)c2)c1.[Br-].[Br-]`, the selectivity ratio in data set [3] amounted to 50. In addition, the MIC with Staphylococcus aureus [1] was 4 µg/mL; in the data set with Staphylococcus aureus [2] it was 8 µg/mL; in the data set with Escherichia coli, 32 µg/mL. Also, the HC5 in the data set on Erythrocyte was found to be 400 µg/mL.
For `CN[C@H](CC(C)C)C(=O)N[C@H]1C(=O)N[C@@H](CC(N)=O)C(=O)N[C@H]2C(=O)N[C@H]3C(=O)N[C@H](C(=O)N[C@H](C(=O)O)c4cc(O)cc(O)c4-c4cc3ccc4O)[C@H](O)c3ccc(c(Cl)c3)Oc3cc2cc(c3O[C@@H]2O[C@H](CO)[C@@H](O)[C@H](O)[C@H]2O[C@H]2C[C@](C)(N)[C@H](O)[C@H](C)O2)Oc2ccc(cc2Cl)[C@H]1O` [VANCOMYCIN], the inhibition entry in the data set with Staphylococcus aureus [4] is “Active”. Moreover, the MIC in the data set with Enterococcus faecalis stood at 1 µg/mL (≈ 0.69 µM). In the data set on Staphylococcus aureus [5], the “inhibition (INH)” value worked out at 37%. Besides, in the data set with Staphylococcus aureus [6], the result was Active.
As for `C(#Cc1ccc(-n2ccnc2)cc1)c1ccc(-n2ccnc2)cc1`, the MIC in the data set with Staphylococcus aureus [1], with Staphylococcus aureus [2] and with Escherichia coli was > 500 µg/mL in each case.
For the compound `CCCCCC[n+]1ccn(-c2ccc(/C=C/c3ccc(-n4cc[n+](CCCCCC)c4)cc3)cc2)c1.[Br-].[Br-]`, in data set [3], the selectivity ratio is 600. In addition, the MIC with Staphylococcus aureus [1] stood at 1 µg/mL; in the data set on Staphylococcus aureus [2], 1 µg/mL; in the data set with Escherichia coli, 2 µg/mL. The compound also came in with an HC5 with Erythrocyte of 600 µg/mL.

The term MIC denotes the lowest concentration that inhibits growth of the organism.
